The values below are quoted from earlier work in patent US20190000834A1, “INJECTABLE COMPOSITION AND A METHOD OF TREATMENT OF THE PHYSICAL ADDICTION” (VERITA RESEARCH PTE LTD, priority 2015, published 2019).

For data set [1], the system named is amphetamine dependence. The note with it: Naltrexone 50 mg along with CBT, 12 weeks.
Data set [2] relates to amphetamine dependent patients. The note with it: naltrexone 50 mg.
For data set [3], the system named is amphetamine dependence. The following applies: outpatients.
For data set [4], the system named is methamphetamine self-administering animals.

With `O=C1CC[C@@]2(O)[C@H]3Cc4ccc(O)c5c4[C@@]2(CCN3CC2CC2)[C@H]1O5` [Naltrexone, (4R,4aS,7aR,12bS)-3-(cyclopropylmethyl)-4a,9-dihydroxy-2,4,5,6,7a,13-hexahydro-1H-4,12-methanobenzofuro [3,2-e] isoquinoline-7-one], the tolerability entry in the data set with amphetamine dependence [1] is reported as “well tolerated”. For the same molecule, in data set [2], the craving result is on record as “significantly blocked” and the “subjective effects produced by dexamphetamine” value is on record as “significantly attenuated”. In addition, the amphetamine use entry in the data set with amphetamine dependence [3] is “effective in reducing amphetamine use”. Besides, the “cue- and drug-induced methamphetamine seeking” value in data set [4] is “attenuated cue—but not drug-induced methamphetamine”.
